In US12421253B2 (Mirati Therapeutics, Inc., priority 2020, dated 2025) one finds IC50 data, which are given here for twelve compounds.

For assay [1], the target named is T1, KRas^G12D (Homo sapiens, UniProt P01116, G12D).
T1 construct: […]; biotin (biotinylated); purchased Accelegan Inc
Briefly: KRas binding assay (TR-FRET displacement of Cy5 labelled tracer).
Description: (§2) The ability of a compound to bind to KRas was measured using a TR-FRET displacement assay. […] After a 60-minute incubation at room temperature, the reaction was measured using a BMG LABTECH CLARIO star Plus via TR-FRET. […] The POC values were fit to a 4-parameter IC50 equation and the IC50 value reported.

In assay [2] the target is T2, KRas^G12V (Homo sapiens, UniProt P01116, G12V).
T2 construct: […]; biotin (biotinylated); purchased Accelegan Inc
The assay is described as above.
Description: as §2

For assay [3], the system named is PSN1 cells, pERK. The experiment in a line: Inhibition of KRas phosphorylation of ERK (Cisbio HTRF Advanced pERK assay). The class given is cell-based. As to conditions: Homo sapiens, PSN1, 3 h, read-out: Inhibition (HTRF IC50 nM) of KRas-mediated Phosphorylation of ERK, PSN1. In outline:
(§1)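 Compound effect on ERK phosphorylation is measured after 3 h exposure of cells, seeded the previous day in RPMI with 10% FBS, to ten 3-fold dilutions starting at 10 uM. Lysates are probed by HTRF for pERK, with trametinib at 0.2 uM defining the minimum signal.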

Assay [4] has as its system MKN1 cells, pERK. The description is as above. The assay is classed as cell-based. As to conditions: Homo sapiens, MKN-1, 3 h, read-out: Inhibition (HTRF IC50 nM) of KRas-mediated Phosphorylation of ERK, MKN1. The method in brief: as §1
For orientation: Time-resolved FRET reads energy transfer from a long-lived donor to a nearby acceptor.

The test system of assay [5] is ASPC1 cells, pERK. The description is as above. The assay is classed as cell-based. As to conditions: Homo sapiens, ASPC1, 3 h, AsPC-1 cells, read-out: Inhibition (HTRF IC50 nM) of KRas-mediated Phosphorylation of ERK, AsPC-1. In outline:
as §1

Assay [6] deals with H727 cells, pERK. The assay is described as above. The assay is classed as cell-based. As to conditions: Homo sapiens, NCI-H727, 3 h, read-out: Inhibition (HTRF IC50 nM) of KRas-mediated Phosphorylation of ERK, H727. In outline: as §1
Assay [7] deals with HCT116 cells, pERK. Described as above. The class given is cell-based. As to conditions: Homo sapiens, HCT-116, 3 hrs, read-out: Inhibition (HTRF IC50 nM) of KRas-mediated Phosphorylation of ERK, HCT116. The method in brief: as §1
The target in assay [8] is T3, KRas^G12R (Homo sapiens, UniProt P01116, G12R).
T3 construct: […]; biotin (biotinylated); purchased Accelegan Inc
Briefly: KRas binding assay (TR-FRET displacement of Cy5 labelled tracer).
Description: as §2

The structures appear in SMILES notation.

T3 sequence (P01116 1-169 isoform P01116-2 G12R): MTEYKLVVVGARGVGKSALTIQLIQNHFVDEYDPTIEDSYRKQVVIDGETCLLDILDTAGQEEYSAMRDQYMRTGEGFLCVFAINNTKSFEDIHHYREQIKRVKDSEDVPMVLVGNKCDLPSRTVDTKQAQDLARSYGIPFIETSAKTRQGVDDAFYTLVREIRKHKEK
T1 sequence (P01116 1-169 isoform P01116-2 G12D): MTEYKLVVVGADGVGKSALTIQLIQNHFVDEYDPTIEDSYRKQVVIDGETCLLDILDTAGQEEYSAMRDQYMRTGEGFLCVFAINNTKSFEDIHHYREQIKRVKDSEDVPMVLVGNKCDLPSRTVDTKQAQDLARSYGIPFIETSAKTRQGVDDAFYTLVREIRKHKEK
T2 sequence (P01116 1-169 isoform P01116-2 G12V): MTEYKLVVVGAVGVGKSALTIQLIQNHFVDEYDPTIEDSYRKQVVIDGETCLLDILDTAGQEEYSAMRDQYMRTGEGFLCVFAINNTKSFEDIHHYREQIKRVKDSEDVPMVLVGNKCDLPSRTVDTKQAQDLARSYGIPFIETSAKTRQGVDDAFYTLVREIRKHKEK

In the case of `CCc1c(F)ccc2cc(O)cc(N3CCc4c(nc(OC[C@@]56CCCN5C[C@H](F)C6)nc4N4CCCC5(CC(O)C5)C4)C3)c12` (stereo partly drawn) [Example 60, 6-(7-(8-ethyl-7-fluoro-3-hydroxynaphthalen-1-yl)-2-(((2R,7aS)-2-fluorohexahydro-1H-pyrrolizin-7a-yl)methoxy)-5,6,7,8-tetrahydropyrido[3,4-d]pyrimidin-4-yl)-6-azaspiro[3.5]nonan-2-ol], the IC50 (in general, the midpoint of a concentration-inhibition curve) is no more than 0.002 µM in assay [1]; no more than 0.002 µM in assay [2]; 6610 nM in assay [3]; 29 nM in assay [4]; 556 nM in assay [5]; 258 nM in assay [6]. In addition, the IC50 in assay [7] is 1120 nM; in assay [8], no more than 0.002 µM.

Regarding `CCc1c(F)ccc2cc(O)cc(N3CCc4c(nc(OC[C@@]56CCCN5C[C@H](F)C6)nc4N4CCCC5(CNS(=O)(=O)N5)C4)C3)c12` (stereo partly drawn) [Example 61, 7-(7-(8-ethyl-7-fluoro-3-hydroxynaphthalen-1-yl)-2-(((2R,7aS)-2-fluorohexahydro-1H-pyrrolizin-7a-yl)methoxy)-5,6,7,8-tetrahydropyrido[3,4-d]pyrimidin-4-yl)-2-thia-1,3,7-triazaspiro[4.5]decane 2,2-dioxide], the IC50 in assay [1] came out at 0.004 µM; in assay [2], 0.004 µM; in assay [3], 3650 nM; in assay [4], 51 nM; in assay [5], 211 nM; in assay [6], 1200 nM. Besides, the IC50 came out at 2380 nM in assay [7] and 0.009 µM in assay [8].

In the case of `CCc1c(F)ccc2cc(O)cc(N3CCc4c(nc(OC[C@@]56CCCN5C[C@H](F)C6)nc4N4CC5CC(O)C(C5)C4)C3)c12` (stereo partly drawn) [Example 63, 3-(7-(8-ethyl-7-fluoro-3-hydroxynaphthalen-1-yl)-2-(((2R,7aS)-2-fluorohexahydro-1H-pyrrolizin-7a-yl)methoxy)-5,6,7,8-tetrahydropyrido[3,4-d]pyrimidin-4-yl)-3-azabicyclo[3.2.1]octan-6-ol], the IC50 in assay [1] is 0.008 µM; in assay [2], no more than 0.002 µM; in assay [3], 6960 nM; in assay [4] it was 33 nM; in assay [5], 457 nM; in assay [6], 608 nM. The IC50 in assay [7] is 1170 nM; in assay [8], no more than 0.002 µM.

Turning to `CCc1c(F)ccc2cc(O)cc(N3CCc4c(nc(OC[C@@]56CCCN5C[C@H](F)C6)nc4N4CCCC5(CNC5=O)C4)C3)c12` (stereo partly drawn) [Example 64, 6-(7-(8-ethyl-7-fluoro-3-hydroxynaphthalen-1-yl)-2-(((2R,7aS)-2-fluorohexahydro-1H-pyrrolizin-7a-yl)methoxy)-5,6,7,8-tetrahydropyrido[3,4-d]pyrimidin-4-yl)-2,6-diazaspiro[3.5]nonan-1-one], the IC50 in assay [1] was no more than 0.002 µM; in assay [2], no more than 0.002 µM; in assay [3], 2630 nM; in assay [4] it was 83 nM; in assay [5], 595 nM; in assay [6], 778 nM. The IC50 in assay [7] was 891 nM; in assay [8], no more than 0.002 µM.

In the case of `CCc1c(F)ccc2cc(O)cc(N3CCc4c(nc(OC[C@@]56CCCN5C[C@H](F)C6)nc4N4CCOCC(CO)C4)C3)c12` (stereo partly drawn) [Example 65, 5-ethyl-6-fluoro-4-(2-(((2R,7aS)-2-fluorohexahydro-1H-pyrrolizin-7a-yl)methoxy)-4-(6-(hydroxymethyl)-1,4-oxazepan-4-yl)-5,6-dihydropyrido[3,4-d]pyrimidin-7(8H)-yl)naphthalen-2-ol], the IC50 in assay [1] was 0.003 µM; in assay [2] it was no more than 0.002 µM; in assay [3], 4420 nM; in assay [4] it was 26 nM; in assay [5], 1290 nM; in assay [6], 739 nM. Further, the IC50 is 1210 nM in assay [7] and no more than 0.002 µM in assay [8].

`O=C1CC2(CCCN(c3nc(OC[C@@]45CCCN4C[C@H](F)C5)nc4c3CCN(c3cc(O)cc5ccc(F)c(Cl)c35)C4)C2)N1` (stereo partly drawn) [Example 70, 6-(7-(8-chloro-7-fluoro-3-hydroxynaphthalen-1-yl)-2-(((2R,7aS)-2-fluorohexahydro-1H-pyrrolizin-7a-yl)methoxy)-5,6,7,8-tetrahydropyrido[3,4-d]pyrimidin-4-yl)-1,6-diazaspiro[3.5]nonan-2-one]: the IC50 was no more than 0.002 µM in assay [1]; no more than 0.002 µM in assay [2]; 750 nM in assay [3]; 40 nM in assay [4]; 705 nM in assay [5]; 471 nM in assay [6]. In addition, the IC50 was 1490 nM in assay [7] and no more than 0.002 µM in assay [8].

For `CC1(O)COCCN(c2nc(OC[C@@]34CCCN3C[C@H](F)C4)nc3c2CCN(c2cc(O)cc4ccc(F)c(Cl)c24)C3)C1` (stereo partly drawn) [Example 74, 4-(7-(8-chloro-7-fluoro-3-hydroxynaphthalen-1-yl)-2-(((2R,7aS)-2-fluorohexahydro-1H-pyrrolizin-7a-yl)methoxy)-5,6,7,8-tetrahydropyrido[3,4-d]pyrimidin-4-yl)-6-methyl-1,4-oxazepan-6-ol], the IC50 is no more than 0.002 µM in assay [1]; 0.003 µM in assay [2]; 4050 nM in assay [3]; 78 nM in assay [4]; 253 nM in assay [5]; 790 nM in assay [6]. In addition, the IC50 in assay [7] was 1450 nM; in assay [8], 0.004 µM.

Regarding `Nc1cc2n(n1)CCCN(c1nc(OC[C@@]34CCCN3C[C@H](F)C4)nc3c1CCN(c1cc(O)cc4ccc(F)c(Cl)c14)C3)C2` [Example 75, 4-(4-(2-amino-7,8-dihydro-4H-pyrazolo[1,5-a][1,4]diazepin-5(6H)-yl)-2-(((2R,7aS)-2-fluorohexahydro-1H-pyrrolizin-7a-yl)methoxy)-5,6-dihydropyrido[3,4-d]pyrimidin-7(8H)-yl)-5-chloro-6-fluoronaphthalen-2-ol], the IC50 in assay [1] is no more than 0.002 µM; in assay [2], 0.003 µM; in assay [3], no less than 10000 nM; in assay [4] it was 128 nM; in assay [5] it was 128 nM; in assay [6], 242 nM. Besides, the IC50 in assay [7] is 2160 nM; in assay [8], no more than 0.002 µM.

As for `Oc1cc(N2CCc3c(nc(OC[C@@]45CCCN4C[C@H](F)C5)nc3N3CCCC4(CC(O)C4)C3)C2)c2c(Br)c(F)ccc2c1` (stereo partly drawn) [Example 224, 6-(7-(8-bromo-7-fluoro-3-hydroxynaphthalen-1-yl)-2-(((2R,7aS)-2-fluorohexahydro-1H-pyrrolizin-7a-yl)methoxy)-5,6,7,8-tetrahydropyrido[3,4-d]pyrimidin-4-yl)-6-azaspiro[3.5]nonan-2-ol], the IC50 was no more than 0.002 µM in assay [1]; no more than 0.002 µM in assay [2]; no less than 10000 nM in assay [3]; 62 nM in assay [4]; 976 nM in assay [5]; 651 nM in assay [6]. Also, in assay [8], the IC50 was no more than 0.002 µM.

As for `Oc1cc(N2CCc3c(nc(OC[C@@]45CCCN4C[C@H](F)C5)nc3N3CC4CC(O)C(C4)C3)C2)c2c(Cl)c(F)ccc2c1` (stereo partly drawn) [Example 227, 3-(7-(8-chloro-7-fluoro-3-hydroxynaphthalen-1-yl)-2-(((2R,7aS)-2-fluorohexahydro-1H-pyrrolizin-7a-yl)methoxy)-5,6,7,8-tetrahydropyrido[3,4-d]pyrimidin-4-yl)-3-azabicyclo[3.2.1]octan-6-ol], the IC50 was found to be 0.02 µM in assay [1]; 0.004 µM in assay [2]; 7050 nM in assay [3]; 524 nM in assay [4]; 4050 nM in assay [5]; 1300 nM in assay [6]. In addition, in assay [8], the IC50 worked out at 0.006 µM.

As for `Oc1cc(N2CCc3c(nc(OC[C@@]45CCCN4C[C@H](F)C5)nc3N3CCOCC(n4cccn4)C3)C2)c2c(Cl)c(F)ccc2c1` (stereo partly drawn) [Example 230, 4-(4-(6-(1H-pyrazol-1-yl)-1,4-oxazepan-4-yl)-2-(((2R,7aS)-2-fluorohexahydro-1H-pyrrolizin-7a-yl)methoxy)-5,6-dihydropyrido[3,4-d]pyrimidin-7(8H)-yl)-5-chloro-6-fluoronaphthalen-2-ol], the IC50 in assay [1] was 0.005 µM; in assay [2] it was 0.003 µM; in assay [3], no less than 10000 nM; in assay [4], 112 nM; in assay [5], 1090 nM; in assay [6], 1750 nM. Moreover, the IC50 in assay [8] was 0.005 µM.

Consider `O=C1NCC12CCCN(c1nc(OC[C@@]34CCCN3C[C@H](F)C4)nc3c1CCN(c1cc(O)cc4ccc(F)c(Cl)c14)C3)C2` (stereo partly drawn) [Example 231, 6-(7-(8-chloro-7-fluoro-3-hydroxynaphthalen-1-yl)-2-(((2R,7aS)-2-fluorotetrahydro-1H-pyrrolizin-7a(5H)-yl)methoxy)-5,6,7,8-tetrahydropyrido[3,4-d]pyrimidin-4-yl)-2,6-diazaspiro[3.5]nonan-1-one], for which the IC50 was 0.012 µM in assay [1]; 0.015 µM in assay [2]; no less than 10000 nM in assay [3]; 929 nM in assay [4]; 2360 nM in assay [5]; 4380 nM in assay [6]. The compound also gave an IC50 in assay [8] of 0.026 µM.
